# Non-standard residues stand in square brackets, D forms with d. Residues, ends and D or L forms follow the SMILES beside them. Trp(6-Cl) = N[C@@H](Cc1c[nH]c2cc(Cl)ccc12)C(=O)O; Dip = N[C@H](C(=O)O)C(c1ccccc1)c1ccccc1; 2Nal = N[C@@H](Cc1ccc2ccccc2c1)C(=O)O; d2Nal = N[C@H](Cc1ccc2ccccc2c1)C(=O)O; Dab = NCC[C@H](N)C(=O)O
# What was measured:
# S. aureus ATCC 29213 = conditions: ATCC 29213
# [1] = tested on: Methicillin-resistant Staphylococcus aureus MRSA (ATCC BAA-1556); conditions: ATCC BAA-1556
# [2] = tested on: Pseudomonas aeruginosa (ATCC 27883); conditions: ATCC 27883
# human red blood cells = tested on: human red blood cells; design: unit not given beside the values
# [3] = tested on: Escherichia coli (ATCC 25922); conditions: ATCC 25922
MIC S. aureus ATCC 29213 (S. aureus ATCC 29213) [µg/mL],MIC MRSA ATCC BAA-1556 [1] [µg/mL],MIC P. aeruginosa ATCC 27883 [2] [µg/mL],HC50 (human red blood cells),MIC E. coli ATCC 25922 [3] [µg/mL],SMILES
12.5,12.5,25,370,25,"N=C(N)NCCC[C@H](NC(=O)[C@H](CCCNC(=N)N)NC(=O)[C@@H](NC(=O)[C@@H](NC(=O)[C@H](CCCNC(=N)N)NC(=O)[C@@H](N)CCCNC(=N)N)C(c1ccccc1)c1ccccc1)C(c1ccccc1)c1ccccc1)C(=O)N[C@H](C(=O)O)C(c1ccccc1)c1ccccc1 [IFX-017-1, NH2-Arg-Arg-Dip-Dip-Arg-Arg-Dip-OH] (H-RR[Dip][Dip]RR[Dip]-OH)"
6.2,6.2,50,325,12.5,"N=C(N)NCCC[C@H](NC(=O)[C@H](CCCNC(=N)N)NC(=O)[C@@H](N)CCCNC(=N)N)C(=O)N[C@H](C(=O)N[C@@H](Cc1c[nH]c2ccccc12)C(=O)N[C@H](C(=O)O)C(c1ccccc1)c1ccccc1)C(c1ccccc1)c1ccccc1 [IFX-021-1, NH2-R-R-R-Dip-Trp-Dip-OH] (H-RRR[Dip]W[Dip]-OH)"
6.2,6.2,50,135,50,"N=C(N)NCCC[C@H](NC(=O)[C@H](CCCNC(=N)N)NC(=O)[C@@H](N)CCCNC(=N)N)C(=O)N[C@@H](CCCNC(=N)N)C(=O)N[C@H](C(=O)N[C@H](C(=O)N[C@H](C(=O)N[C@H](C(=O)O)C(c1ccccc1)c1ccccc1)C(c1ccccc1)c1ccccc1)C(c1ccccc1)c1ccccc1)C(c1ccccc1)c1ccccc1 [IFX-005-1, NH2-Arg-Arg-Arg-Arg-Dip-Dip-Dip-Dip-OH] (H-RRRR[Dip][Dip][Dip][Dip]-OH)"
6.2,6.2,25,600,12.5,"N=C(N)NCCC[C@H]1NC(=O)[C@H](Cc2c[nH]c3ccccc23)NC(=O)[C@H](Cc2c[nH]c3ccccc23)NC(=O)[C@H](Cc2c[nH]c3ccccc23)NC(=O)[C@H](Cc2c[nH]c3ccccc23)NC(=O)[C@@H](CCCNC(=N)N)NC(=O)[C@@H](CCCNC(=N)N)NC(=O)[C@@H](CCCNC(=N)N)NC1=O [IFX-036, c[arg-arg-arg-arg-Trp-Trp-Trp-Trp]] (cyclo([dR][dR][dR][dR]WWWW))"
,,,250,,"N=C(N)NCCC[C@@H]1NC(=O)[C@H](CCCNC(=N)N)NC(=O)[C@H](Cc2ccc3ccccc3c2)NC(=O)[C@H](Cc2c[nH]c3ccccc23)NC(=O)[C@H](Cc2ccc3ccccc3c2)NC(=O)[C@H](CCCNC(=N)N)NC1=O [IFX-024, c[Arg-Arg-Arg-NaI-Trp-NaI]] (cyclo(RRR[2Nal]W[2Nal]))"
6.2,6.2,>100,310,50,"N=C(N)NCCC[C@H](NC(=O)[C@H](CCCNC(=N)N)NC(=O)[C@H](CCCNC(=N)N)NC(=O)[C@@H](N)CCCNC(=N)N)C(=O)N[C@@H](Cc1ccc2ccccc2c1)C(=O)N[C@@H](Cc1ccc2ccccc2c1)C(=O)O [IFX-011-1, NH2-Arg-Arg-Arg-Arg-NaI-NaI-OH] (H-RRRR[2Nal][2Nal]-OH)"
12.5,25,>100,320,25,"N=C(N)NCCC[C@H](NC(=O)[C@@H](NC(=O)[C@@H](NC(=O)[C@H](CCCNC(=N)N)NC(=O)[C@H](CCCNC(=N)N)NC(=O)[C@@H](NC(=O)[C@@H](N)CCCNC(=N)N)C(c1ccccc1)c1ccccc1)C(c1ccccc1)c1ccccc1)C(c1ccccc1)c1ccccc1)C(=O)O [IFX-016-1, NH2-Arg-Dip-Arg-Arg-Dip-Dip-Arg-OH] (H-R[Dip]RR[Dip][Dip]R-OH)"
,,,200,,"N=C(N)NCCC[C@@H]1NC(=O)[C@H](CCCNC(=N)N)NC(=O)[C@H](CCCNC(=N)N)NC(=O)[C@H](Cc2ccc3ccccc3c2)NC(=O)[C@H](Cc2ccc3ccccc3c2)NC(=O)[C@H](Cc2c[nH]c3ccccc23)NC(=O)[C@H](CCCNC(=N)N)NC1=O [IFX-029, c[Arg-Arg-Arg-Arg-Trp-NaI-NaI]] (cyclo(RRRRW[2Nal][2Nal]))"
,,,175,,"N=C(N)NCCC[C@@H]1NC(=O)[C@H](CCCNC(=N)N)NC(=O)[C@H](Cc2ccc3ccccc3c2)NC(=O)[C@H](Cc2ccc3ccccc3c2)NC(=O)[C@H](Cc2c[nH]c3ccccc23)NC(=O)[C@H](CCCNC(=N)N)NC1=O [IFX-023, c[Arg-Arg-Arg-Trp-NaI-NaI]] (cyclo(RRRW[2Nal][2Nal]))"
,,,215,,"N=C(N)NCCC[C@@H]1NC(=O)[C@H](CCCNC(=N)N)NC(=O)[C@H](Cc2c[nH]c3ccccc23)NC(=O)[C@H](C(c2ccccc2)c2ccccc2)NC(=O)[C@H](C(c2ccccc2)c2ccccc2)NC(=O)[C@H](CCCNC(=N)N)NC1=O [IFX-022, c[Arg-Arg-Arg-Dip-Dip-Trp]] (cyclo([Dip][Dip]WRRR))"

# The remaining lines, values behind:
SMILES,MIC S. aureus ATCC 29213 (S. aureus ATCC 29213) [µg/mL],MIC MRSA ATCC BAA-1556 [1] [µg/mL],MIC P. aeruginosa ATCC 27883 [2] [µg/mL],HC50 (human red blood cells),MIC E. coli ATCC 25922 [3] [µg/mL]
"N=C(N)NCCC[C@@H]1NC(=O)[C@H](CCCNC(=N)N)NC(=O)[C@H](CCCNC(=N)N)NC(=O)[C@H](Cc2c[nH]c3cc(Cl)ccc23)NC(=O)[C@H](Cc2c[nH]c3cc(Cl)ccc23)NC(=O)[C@H](Cc2c[nH]c3cc(Cl)ccc23)NC(=O)[C@H](Cc2c[nH]c3cc(Cl)ccc23)NC(=O)[C@H](CCCNC(=N)N)NC1=O [IFX-040, c[Arg-Arg-Arg-Arg-6clW-6clW-6clW-6clW]] (cyclo(RRRR[Trp(6-Cl)][Trp(6-Cl)][Trp(6-Cl)][Trp(6-Cl)]))",3.1,3.1,100,490,100
"N=C(N)NCCC[C@@H]1NC(=O)[C@H](CCCNC(=N)N)NC(=O)[C@H](Cc2c[nH]c3ccccc23)NC(=O)[C@H](Cc2ccc3ccccc3c2)NC(=O)[C@H](Cc2ccc3ccccc3c2)NC(=O)[C@H](CCCNC(=N)N)NC1=O [IFX-025, c[Arg-Arg-Arg-NaI-NaI-Trp]] (cyclo(RRR[2Nal][2Nal]W))",,,,190,
"N=C(N)NCCC[C@@H]1NC(=O)[C@H](CCN)NC(=O)[C@@H](CCCNC(=N)N)NC(=O)[C@H](CCCNC(=N)N)NC(=O)[C@@H](Cc2ccc3ccccc3c2)NC(=O)[C@@H](Cc2ccc3ccccc3c2)NC(=O)[C@H](Cc2c[nH]c3ccccc23)NC(=O)[C@@H](CCCNC(=N)N)NC1=O [IFX-055, c[Arg-arg-Dab-Arg-arg-Trp-naI-naI]] (cyclo([Dab]R[dR]W[d2Nal][d2Nal]R[dR]))",32,32,32,575,16
"N=C(N)NCCC[C@H](NC(=O)[C@H](CCCNC(=N)N)NC(=O)[C@@H](N)CCCNC(=N)N)C(=O)N[C@H](C(=O)N[C@H](C(=O)N[C@H](C(=O)O)C(c1ccccc1)c1ccccc1)C(c1ccccc1)c1ccccc1)C(c1ccccc1)c1ccccc1 [IFX-002-1, NH2-Arg-Arg-Arg-Dip-Dip-Dip-OH] (H-RRR[Dip][Dip][Dip]-OH)",3.1,3.1,25,265,6.2
"N=C(N)NCCC[C@H](NC(=O)[C@H](CCCNC(=N)N)NC(=O)[C@@H](N)CCCNC(=N)N)C(=O)N[C@@H](Cc1ccc2ccccc2c1)C(=O)N[C@@H](Cc1ccc2ccccc2c1)C(=O)N[C@@H](Cc1ccc2ccccc2c1)C(=O)O [IFX-003-1, NH2-Arg-Arg-Arg-NaI -NaI-NaI-OH] (H-RRR[2Nal][2Nal][2Nal]-OH)",3.1,3.1,25,310,16
"N=C(N)NCCC[C@@H]1NC(=O)[C@H](CCCNC(=N)N)NC(=O)[C@H](CCCNC(=N)N)NC(=O)[C@H](C(c2ccccc2)c2ccccc2)NC(=O)[C@H](Cc2c[nH]c3ccccc23)NC(=O)[C@H](C(c2ccccc2)c2ccccc2)NC(=O)[C@H](CCCNC(=N)N)NC1=O [IFX-027, c[Arg-Arg-Arg-Arg-Dip-Trp-Dip]] (cyclo(RRRR[Dip]W[Dip]))",,,,860,
"N=C(N)NCCC[C@H](NC(=O)[C@H](Cc1ccc2ccccc2c1)NC(=O)[C@H](Cc1ccc2ccccc2c1)NC(=O)[C@H](CCCNC(=N)N)NC(=O)[C@H](CCCNC(=N)N)NC(=O)[C@H](Cc1ccc2ccccc2c1)NC(=O)[C@@H](N)CCCNC(=N)N)C(=O)O [IFX-018-1, NH2-Arg-NaI-Arg-Arg-NaI-NaI-Arg-OH] (H-R[2Nal]RR[2Nal][2Nal]R-OH)",12.5,25,50,405,25
"N=C(N)NCCC[C@H](NC(=O)[C@H](CCCNC(=N)N)NC(=O)[C@H](CCCNC(=N)N)NC(=O)[C@H](CCCNC(=N)N)NC(=O)[C@@H](N)CCCNC(=N)N)C(=O)N[C@@H](Cc1ccc2ccccc2c1)C(=O)N[C@@H](Cc1ccc2ccccc2c1)C(=O)N[C@@H](Cc1ccc2ccccc2c1)C(=O)O [IFX-013-1, NH2-Arg-Arg-Arg-Arg-Arg-NaI-NaI-NaI-OH] (H-RRRRR[2Nal][2Nal][2Nal]-OH)",3.1,3.1,25,200,25
